# Assays:
# [1] = molecular target: T1, hNav1.3 (Homo sapiens, UniProt Q9NY46); assay: voltage clamp currents in mammalian cells stably transfected with cloned ion channel cDNA, hNav1.3; assay type: cell-based
# T1 construct: expressed in transfected cells
# Description: (§1) Nonlinear least squares fits of the current ratio data yielded the best fit value for the IC50 concentration. A positive control was included for each channel tested in the study.
# [2] = molecular target: hKv1.3 (Homo sapiens, UniProt P22001); assay: voltage clamp currents in mammalian cells stably transfected with cloned ion channel cDNA, hKv1.3; assay type: cell-based
# Sequence of hKv1.3 (P22001 whole entry): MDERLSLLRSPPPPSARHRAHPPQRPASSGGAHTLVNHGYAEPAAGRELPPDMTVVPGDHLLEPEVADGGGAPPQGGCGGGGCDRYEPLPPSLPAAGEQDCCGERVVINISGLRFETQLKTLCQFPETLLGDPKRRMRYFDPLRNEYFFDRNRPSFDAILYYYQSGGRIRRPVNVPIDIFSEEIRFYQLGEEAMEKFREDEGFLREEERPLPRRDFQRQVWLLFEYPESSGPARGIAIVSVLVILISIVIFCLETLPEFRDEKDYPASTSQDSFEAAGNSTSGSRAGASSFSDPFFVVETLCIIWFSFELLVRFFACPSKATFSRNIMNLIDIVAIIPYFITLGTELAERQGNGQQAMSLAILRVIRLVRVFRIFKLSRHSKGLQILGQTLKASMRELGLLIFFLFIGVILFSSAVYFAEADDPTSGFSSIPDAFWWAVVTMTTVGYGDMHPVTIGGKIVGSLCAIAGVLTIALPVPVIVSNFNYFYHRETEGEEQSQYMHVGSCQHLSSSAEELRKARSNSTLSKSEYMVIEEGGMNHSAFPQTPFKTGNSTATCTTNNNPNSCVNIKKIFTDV
# Description: as §1
# [3] = molecular target: hCav1.2 (Homo sapiens, UniProt Q13936); assay: voltage clamp currents in mammalian cells stably transfected with cloned ion channel cDNA, hCav1.2; assay type: cell-based
# Sequence of hCav1.2 (Q13936 whole entry): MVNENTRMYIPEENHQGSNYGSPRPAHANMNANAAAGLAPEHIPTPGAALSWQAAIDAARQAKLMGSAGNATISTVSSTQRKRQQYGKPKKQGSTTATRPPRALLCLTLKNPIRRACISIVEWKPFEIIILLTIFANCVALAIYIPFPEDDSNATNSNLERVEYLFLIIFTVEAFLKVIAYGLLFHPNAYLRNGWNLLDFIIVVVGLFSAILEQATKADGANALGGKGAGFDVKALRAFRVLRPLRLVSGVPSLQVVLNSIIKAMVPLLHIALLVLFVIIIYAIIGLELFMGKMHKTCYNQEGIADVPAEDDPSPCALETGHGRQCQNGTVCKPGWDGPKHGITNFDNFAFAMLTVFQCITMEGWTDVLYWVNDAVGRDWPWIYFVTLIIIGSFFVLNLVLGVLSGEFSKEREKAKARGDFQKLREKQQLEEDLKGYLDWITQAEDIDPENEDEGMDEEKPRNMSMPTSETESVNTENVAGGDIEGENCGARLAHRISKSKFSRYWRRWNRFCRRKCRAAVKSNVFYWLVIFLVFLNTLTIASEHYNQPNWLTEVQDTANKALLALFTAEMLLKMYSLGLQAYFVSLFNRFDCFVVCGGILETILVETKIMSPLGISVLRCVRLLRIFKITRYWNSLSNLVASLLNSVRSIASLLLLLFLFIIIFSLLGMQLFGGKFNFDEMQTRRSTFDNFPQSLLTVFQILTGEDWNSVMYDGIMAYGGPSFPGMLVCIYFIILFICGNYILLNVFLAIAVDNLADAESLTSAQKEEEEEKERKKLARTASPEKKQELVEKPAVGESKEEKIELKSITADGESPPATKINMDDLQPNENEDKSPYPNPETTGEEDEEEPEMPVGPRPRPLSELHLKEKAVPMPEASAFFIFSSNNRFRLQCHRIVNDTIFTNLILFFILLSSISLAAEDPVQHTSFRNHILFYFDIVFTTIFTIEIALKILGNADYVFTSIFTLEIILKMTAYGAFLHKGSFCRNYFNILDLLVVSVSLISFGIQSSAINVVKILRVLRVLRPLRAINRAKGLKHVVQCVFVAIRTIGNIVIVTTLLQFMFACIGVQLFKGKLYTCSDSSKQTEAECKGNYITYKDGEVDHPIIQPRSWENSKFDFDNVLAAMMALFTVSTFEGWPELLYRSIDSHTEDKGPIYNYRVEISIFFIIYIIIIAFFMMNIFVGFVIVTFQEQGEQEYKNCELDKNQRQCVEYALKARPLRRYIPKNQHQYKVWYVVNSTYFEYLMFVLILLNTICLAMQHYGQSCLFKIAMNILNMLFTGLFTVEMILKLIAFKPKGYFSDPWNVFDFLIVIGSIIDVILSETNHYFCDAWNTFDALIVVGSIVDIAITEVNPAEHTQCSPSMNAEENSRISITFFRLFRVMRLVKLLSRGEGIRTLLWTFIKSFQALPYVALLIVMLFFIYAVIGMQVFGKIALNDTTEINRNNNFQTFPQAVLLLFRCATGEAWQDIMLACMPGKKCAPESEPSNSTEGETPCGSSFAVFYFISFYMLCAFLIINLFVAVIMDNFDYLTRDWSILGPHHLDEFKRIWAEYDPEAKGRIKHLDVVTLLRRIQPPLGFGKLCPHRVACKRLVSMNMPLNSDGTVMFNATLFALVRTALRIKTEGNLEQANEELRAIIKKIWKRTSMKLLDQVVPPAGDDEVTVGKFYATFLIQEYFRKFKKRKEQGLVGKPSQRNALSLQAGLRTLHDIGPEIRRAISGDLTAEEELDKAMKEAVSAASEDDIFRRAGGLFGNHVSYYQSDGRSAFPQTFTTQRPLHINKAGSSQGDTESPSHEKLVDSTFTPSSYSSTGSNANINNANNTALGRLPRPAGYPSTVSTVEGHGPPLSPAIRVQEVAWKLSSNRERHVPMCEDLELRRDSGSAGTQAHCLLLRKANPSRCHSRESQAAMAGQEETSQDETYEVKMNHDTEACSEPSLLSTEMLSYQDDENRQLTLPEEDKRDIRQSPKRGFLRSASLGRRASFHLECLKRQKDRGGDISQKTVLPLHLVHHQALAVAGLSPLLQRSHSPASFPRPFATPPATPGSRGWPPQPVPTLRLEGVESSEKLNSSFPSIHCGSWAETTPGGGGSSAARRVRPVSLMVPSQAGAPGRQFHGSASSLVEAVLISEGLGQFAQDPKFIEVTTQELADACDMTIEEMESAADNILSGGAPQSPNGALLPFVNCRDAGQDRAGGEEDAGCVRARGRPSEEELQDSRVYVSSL
# Sequence of hCav1.2 (Q08289 whole entry partner): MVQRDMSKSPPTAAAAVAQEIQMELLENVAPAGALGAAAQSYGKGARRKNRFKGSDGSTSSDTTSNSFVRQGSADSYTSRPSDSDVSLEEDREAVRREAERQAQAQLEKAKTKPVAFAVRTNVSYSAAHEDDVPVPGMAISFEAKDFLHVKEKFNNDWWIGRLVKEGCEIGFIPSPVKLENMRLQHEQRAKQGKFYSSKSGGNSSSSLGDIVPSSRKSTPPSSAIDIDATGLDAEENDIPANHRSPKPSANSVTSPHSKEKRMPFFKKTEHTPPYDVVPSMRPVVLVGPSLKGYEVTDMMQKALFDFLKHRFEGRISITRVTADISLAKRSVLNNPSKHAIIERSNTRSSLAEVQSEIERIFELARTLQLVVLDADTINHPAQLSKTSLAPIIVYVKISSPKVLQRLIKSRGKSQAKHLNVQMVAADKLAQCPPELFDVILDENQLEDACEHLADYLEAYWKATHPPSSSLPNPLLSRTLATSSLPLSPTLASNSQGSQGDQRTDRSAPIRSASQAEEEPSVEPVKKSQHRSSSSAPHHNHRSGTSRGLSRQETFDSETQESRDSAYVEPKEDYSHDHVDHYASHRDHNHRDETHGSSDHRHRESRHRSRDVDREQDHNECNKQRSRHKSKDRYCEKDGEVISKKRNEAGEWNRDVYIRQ
# Sequence of hCav1.2 (P54289 25-956 partner limits assumed): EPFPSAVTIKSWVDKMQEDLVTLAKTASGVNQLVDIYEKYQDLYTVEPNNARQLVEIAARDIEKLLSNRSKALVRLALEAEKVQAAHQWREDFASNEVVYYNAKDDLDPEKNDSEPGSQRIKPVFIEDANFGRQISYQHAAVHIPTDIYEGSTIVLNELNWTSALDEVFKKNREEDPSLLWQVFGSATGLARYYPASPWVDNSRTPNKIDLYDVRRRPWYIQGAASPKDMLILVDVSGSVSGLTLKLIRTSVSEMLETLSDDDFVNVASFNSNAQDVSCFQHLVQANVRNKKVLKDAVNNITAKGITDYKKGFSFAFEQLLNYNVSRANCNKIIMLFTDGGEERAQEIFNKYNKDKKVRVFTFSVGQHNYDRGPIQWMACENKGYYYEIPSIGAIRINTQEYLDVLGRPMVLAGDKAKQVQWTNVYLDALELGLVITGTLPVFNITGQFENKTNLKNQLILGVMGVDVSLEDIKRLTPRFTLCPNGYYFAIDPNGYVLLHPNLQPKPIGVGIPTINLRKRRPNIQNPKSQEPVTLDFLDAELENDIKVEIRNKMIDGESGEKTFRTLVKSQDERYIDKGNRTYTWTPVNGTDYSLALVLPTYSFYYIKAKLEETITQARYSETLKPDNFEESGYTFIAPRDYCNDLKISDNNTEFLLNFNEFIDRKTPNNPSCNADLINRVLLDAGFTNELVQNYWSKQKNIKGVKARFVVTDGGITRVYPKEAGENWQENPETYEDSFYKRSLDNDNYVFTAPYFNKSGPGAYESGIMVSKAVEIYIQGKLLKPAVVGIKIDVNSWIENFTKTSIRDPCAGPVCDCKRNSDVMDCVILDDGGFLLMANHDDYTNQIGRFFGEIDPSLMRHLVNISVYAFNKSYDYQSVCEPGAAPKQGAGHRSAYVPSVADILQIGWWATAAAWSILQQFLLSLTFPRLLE
# Sequence of hCav1.2 (P54289 957-1103 partner limits assumed): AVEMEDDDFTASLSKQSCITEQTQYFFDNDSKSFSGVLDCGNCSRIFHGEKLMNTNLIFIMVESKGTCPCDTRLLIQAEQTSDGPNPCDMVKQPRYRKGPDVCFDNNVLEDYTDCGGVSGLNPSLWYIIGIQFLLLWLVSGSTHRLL
# Description: as §1
# [4] = molecular target: T2, hERG (Homo sapiens, UniProt Q12809); assay: voltage clamp currents in mammalian cells stably transfected with cloned ion channel cDNA, hERG; assay type: cell-based
# T2 construct: expressed in transfected cells
# Description: as §1
# [5] = molecular target: hCav3.2 (Homo sapiens, UniProt O95180); assay: cell-based
# Description: as §1
# [6] = molecular target: T3, hHCN4 (Homo sapiens, UniProt Q9Y3Q4); assay: voltage clamp currents in mammalian cells stably transfected with cloned ion channel cDNA, hHCN4; assay type: cell-based
# T3 construct: expressed in transfected cells
# T3 sequence (Q9Y3Q4 1-1203): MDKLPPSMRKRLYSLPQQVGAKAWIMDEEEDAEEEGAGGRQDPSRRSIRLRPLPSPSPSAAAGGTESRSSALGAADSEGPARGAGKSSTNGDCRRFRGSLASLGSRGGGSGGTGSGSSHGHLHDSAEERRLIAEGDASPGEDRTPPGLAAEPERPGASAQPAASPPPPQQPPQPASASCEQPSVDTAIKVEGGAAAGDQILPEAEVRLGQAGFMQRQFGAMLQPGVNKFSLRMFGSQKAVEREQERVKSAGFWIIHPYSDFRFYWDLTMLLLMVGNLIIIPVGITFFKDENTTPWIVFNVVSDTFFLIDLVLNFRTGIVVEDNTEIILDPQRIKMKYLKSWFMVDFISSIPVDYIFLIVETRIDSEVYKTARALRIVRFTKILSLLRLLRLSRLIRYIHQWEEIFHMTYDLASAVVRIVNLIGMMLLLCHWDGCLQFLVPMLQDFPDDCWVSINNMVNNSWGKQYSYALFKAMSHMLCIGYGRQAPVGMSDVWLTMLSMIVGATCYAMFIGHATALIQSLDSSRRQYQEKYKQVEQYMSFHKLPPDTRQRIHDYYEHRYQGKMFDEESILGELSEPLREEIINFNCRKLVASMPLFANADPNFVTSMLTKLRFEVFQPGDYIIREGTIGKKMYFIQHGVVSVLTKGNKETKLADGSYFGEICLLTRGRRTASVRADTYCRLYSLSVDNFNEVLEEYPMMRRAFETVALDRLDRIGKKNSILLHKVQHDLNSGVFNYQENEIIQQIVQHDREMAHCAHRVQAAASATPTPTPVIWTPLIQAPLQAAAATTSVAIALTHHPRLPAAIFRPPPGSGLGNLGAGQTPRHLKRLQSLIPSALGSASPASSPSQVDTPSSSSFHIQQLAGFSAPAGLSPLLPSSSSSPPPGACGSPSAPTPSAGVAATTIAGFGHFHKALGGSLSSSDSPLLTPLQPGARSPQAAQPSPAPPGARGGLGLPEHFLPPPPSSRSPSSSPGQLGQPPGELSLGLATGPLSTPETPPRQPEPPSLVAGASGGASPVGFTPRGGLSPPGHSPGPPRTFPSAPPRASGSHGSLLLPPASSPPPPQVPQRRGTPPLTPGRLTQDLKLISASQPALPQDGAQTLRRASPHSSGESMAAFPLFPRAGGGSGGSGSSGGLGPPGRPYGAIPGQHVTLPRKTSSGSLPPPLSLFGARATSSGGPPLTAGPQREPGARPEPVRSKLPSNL
# Description: as §1
# [7] = molecular target: T4, hKv4.3 (Homo sapiens, UniProt Q9UK17); assay: voltage clamp currents in mammalian cells stably transfected with cloned ion channel cDNA, hKv4.3; assay type: cell-based
# T4 construct: expressed in transfected cells
# T4 sequence (Q9UK17 1-655): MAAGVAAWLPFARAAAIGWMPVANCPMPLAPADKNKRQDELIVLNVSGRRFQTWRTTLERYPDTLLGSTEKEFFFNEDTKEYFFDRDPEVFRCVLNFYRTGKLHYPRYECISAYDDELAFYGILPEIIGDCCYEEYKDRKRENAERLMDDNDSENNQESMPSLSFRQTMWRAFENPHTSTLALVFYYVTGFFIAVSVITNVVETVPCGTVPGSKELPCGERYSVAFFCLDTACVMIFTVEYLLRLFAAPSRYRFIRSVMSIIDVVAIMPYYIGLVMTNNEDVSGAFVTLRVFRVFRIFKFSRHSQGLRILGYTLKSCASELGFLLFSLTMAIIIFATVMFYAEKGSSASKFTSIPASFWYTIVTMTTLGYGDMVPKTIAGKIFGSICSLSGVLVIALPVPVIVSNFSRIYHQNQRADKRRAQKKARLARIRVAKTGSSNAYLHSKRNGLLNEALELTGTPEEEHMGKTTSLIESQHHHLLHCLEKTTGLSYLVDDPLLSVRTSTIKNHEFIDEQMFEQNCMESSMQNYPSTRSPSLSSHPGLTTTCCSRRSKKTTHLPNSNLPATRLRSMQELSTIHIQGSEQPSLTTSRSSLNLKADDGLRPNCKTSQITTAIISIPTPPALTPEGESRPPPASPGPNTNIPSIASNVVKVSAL
# Description: as §1
# [8] = molecular target: hNav1.5 (Homo sapiens, UniProt Q14524); assay: voltage clamp currents in mammalian cells stably transfected with cloned ion channel cDNA, hNav1.5; assay type: cell-based
# Description: as §1
# [9] = molecular target: T5, hKv1.1 (Homo sapiens, UniProt Q09470); assay: voltage clamp currents in mammalian cells stably transfected with cloned ion channel cDNA, hKv1.1; assay type: cell-based
# T5 construct: expressed in transfected cells
# T5 sequence (Q09470 whole entry): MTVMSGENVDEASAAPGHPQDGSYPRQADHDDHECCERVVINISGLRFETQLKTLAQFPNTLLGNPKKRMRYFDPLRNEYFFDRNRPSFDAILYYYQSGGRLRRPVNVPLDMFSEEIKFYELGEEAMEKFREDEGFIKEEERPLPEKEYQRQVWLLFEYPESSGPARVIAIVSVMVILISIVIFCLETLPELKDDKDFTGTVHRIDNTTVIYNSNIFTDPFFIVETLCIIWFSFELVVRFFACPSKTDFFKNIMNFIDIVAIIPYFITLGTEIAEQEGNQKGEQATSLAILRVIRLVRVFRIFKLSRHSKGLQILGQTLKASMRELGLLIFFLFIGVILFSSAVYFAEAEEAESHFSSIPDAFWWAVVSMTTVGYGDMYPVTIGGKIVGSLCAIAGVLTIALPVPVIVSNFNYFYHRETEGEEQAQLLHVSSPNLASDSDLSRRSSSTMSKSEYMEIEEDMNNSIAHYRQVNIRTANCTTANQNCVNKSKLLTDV
# Description: as §1
# [10] = 0.1 Hz, read-out: Estimated IC50 at 0.1 Hz
smiles,measurement,setting,value
"O=c1[nH]c2ccccc2n1CCCN1CCC(n2c(=O)[nH]c3cc(Cl)ccc32)CC1 [domperidone, 1,3-dihydro-5-chloro-1-(1-(3-(2,3-dihydro-2-oxo-1H-benzimidazol-1-yl)propyl)-4-piperidinyl)-2H-benzimidazol-2-one]",% Block at 10 μM/0.1 Hz,[1]; 10 μM,4.6%
same,IC50,[1]; [10],207 µM
same,% Block at 10 μM/0.1 Hz,[2]; 10 μM,17.6%
same,IC50,[2]; [10],46.8 µM
same,% Block at 1 μM/3 Hz,"[3]; 1 μM, 3 Hz",49.6%
same,% Block at 10 μM/0.1 Hz,"[3]; 10 μM, 0.1 Hz",9%
same,% Block at 1 μM/3 Hz,"[4]; 1 μM, 3 Hz",98.0%
same,% Block at 10 μM/0.1 Hz,"[4]; 10 μM, 0.1 Hz",95.5%
same,IC50,"[5]; Estimated IC50 at 0.1 Hz, 0.1 Hz",10.2 µM
same,IC50,"[5]; Estimated IC50 at 3 Hz, 3 Hz",1.22 µM
same,% Block at 10 μM/0.1 Hz,[6]; 10 μM,20.3%
same,IC50,[6]; [10],30.3 µM
same,% Block at 10 μM/0.1 Hz,[7]; 10 μM,0.5%
same,IC50,[7]; [10],1990 µM
same,% Block at 1 μM/3 Hz,"[8]; 1 μM, 3 Hz",23.7%
same,% Block at 10 μM/0.1 Hz,"[8]; 10 μM, 0.1 Hz",37.3%
same,% Block at 10 μM/0.1 Hz,[9]; 10 μM,1.9%
same,IC50,[9]; [10],516 µM

# Source: patent US20090143434A1 (priority 2007, published 2009)
